Reference: the supplement of paper PMC5908809

Columns and labels:
[1] = system: normal primary NK cells, pool 3 (3 donors) (IL-2 2.5 ng/mL); test: percent inhibition of viability; higher = more inhibition; conditions: 72 h
[2] = system: NK-92 (IL-2 2.5 ng/mL); test: as above; conditions: 72 h
[3] = system: SNK-6 (IL-2 2.5 ng/mL); test: as above; conditions: 72 h
[4] = system: normal primary NK cells, pool 1 (3 donors), resting (IL-2 0 ng/mL); test: as above; conditions: 72 h
[5] = system: YT (IL-2 2.5 ng/mL); test: as above; conditions: 72 h
[6] = system: normal primary NK cells, pool 2 (3 donors) (IL-2 2.5 ng/mL); test: as above; conditions: 72 h
[7] = system: normal primary NK cells, pool 1 (3 donors) (IL-2 2.5 ng/mL); test: as above; conditions: 72 h
[8] = system: DERL-7 (IL-2 2.5 ng/mL); test: as above; conditions: 72 h
[9] = system: IMC-1 (IL-2 20 ng/mL); test: as above; conditions: 72 h
[10] = system: NKL (IL-2 2.5 ng/mL); test: as above; conditions: 72 h
[11] = system: NK-YS (IL-2 2.5 ng/mL); test: as above; conditions: 72 h
[12] = system: KAI3 (IL-2 2.5 ng/mL); test: as above; conditions: 72 h
[13] = system: KHYG-1 (IL-2 2.5 ng/mL); test: as above; conditions: 72 h
[14] = system: normal NK cells expanded with K562-aAPC; test: drug sensitivity score (DSS) (DSS units); higher = more sensitive; extreme values may be limits of the assay; conditions: 72 h; IL-2 2.5 ng/mL
Experimental: (§1)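 Drug sensitivity and resistance testing on K562-aAPC-expanded normal NK cells: 5 concentrations (10-fold steps over a 10,000-fold range), 72 h at 37 °C, viability by CellTiter-Glo normalised to DMSO and benzethonium chloride controls; DSS from the fitted curve.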

[15] = system: normal NK cells expanded with K562-aAPC; test: percent inhibition of viability; higher = more inhibition; conditions: 72 h, IL-2 2.5 ng/mL
Experimental: as §1

[16] = system: normal primary NK cells, pool 3 (3 donors) (IL-2 2.5 ng/mL); test: drug sensitivity score (DSS) (DSS units); higher = more sensitive; extreme values may be limits of the assay; conditions: 72 h
[17] = system: NK-92 (IL-2 2.5 ng/mL); test: as above; conditions: 72 h
[18] = system: SNK-6 (IL-2 2.5 ng/mL); test: as above; conditions: 72 h
[19] = system: normal primary NK cells, pool 1 (3 donors), resting (IL-2 0 ng/mL); test: as above; conditions: 72 h
[20] = system: YT (IL-2 2.5 ng/mL); test: as above; conditions: 72 h
[21] = system: normal primary NK cells, pool 2 (3 donors) (IL-2 2.5 ng/mL); test: as above; conditions: 72 h
[22] = system: normal primary NK cells, pool 1 (3 donors) (IL-2 2.5 ng/mL); test: as above; conditions: 72 h
[23] = system: DERL-7 (IL-2 2.5 ng/mL); test: as above; conditions: 72 h
[24] = system: IMC-1 (IL-2 20 ng/mL); test: as above; conditions: 72 h
[25] = system: NKL (IL-2 2.5 ng/mL); test: as above; conditions: 72 h
[26] = system: NK-YS (IL-2 2.5 ng/mL); test: as above; conditions: 72 h
[27] = system: KAI3 (IL-2 2.5 ng/mL); test: as above; conditions: 72 h
[28] = system: KHYG-1 (IL-2 2.5 ng/mL); test: as above; conditions: 72 h

FC(F)c1nc2ccccc2n1-c1nc(N2CCOCC2)nc(N2CCOCC2)n1 [ZSTK474] (max concentration tested 10000 nM)
percent inhibition of viability [%]
Conditions | 1 nM | 10 nM | 100 nM | 1000 nM | 10000 nM
[1] | -3.55 | -8.03 | -3.22 | 10.6 | 22
[2] | 1.13 | 13.1 | 45.6 | 48.8 | 57.2
[3] | 17.9 | -3.78 | -1.36 | 35.9 | 58.6
[4] | -19.3 | -14.1 | 10.2 | 27.2 | 41.5
[5] | 3.19 | 3.41 | 11.6 | 42.3 | 50.5
[6] | -2.66 | -3.09 | 1.26 | 20 | 34.2
[7] | -2.64 | -1.27 | 20.4 | 31.6 | 32.4
[8] | 6 | 10.9 | 36.5 | 75.4 | 81.7
[9] | 0.84 | -3.67 | -9.08 | -31.5 | -20.7
[10] | -4.7 | 3.86 | 6.05 | 54.5 | 69.3
[11] | -6.13 | -3.67 | 5.5 | 36 | 57.2
[12] | 4.91 | 1.34 | 14.2 | 43.2 | 55.8
[13] | 1.03 | -2.51 | 5.44 | 17.9 | 48
[15] | -8.61 | 1.11 | 12.5 | 35.9 | 49.6

Conditions | drug sensitivity score
[14] | 7.86
[16] | 1.91
[17] | 16.9
[18] | 7.51
[19] | 5.69
[20] | 9
[21] | 3.84
[22] | 7.96
[23] | 18.4
[24] | 0
[25] | 11
[26] | 7.54
[27] | 9.53
[28] | 4.45

O=C(Nc1cccc(Nc2ncc(Br)c(NCCc3cnc[nH]3)n2)c1)N1CCCC1 [BX-912] (max concentration tested 10000 nM)
percent inhibition of viability [%]
Conditions | 1 nM | 10 nM | 100 nM | 1000 nM | 10000 nM
[1] | -2.12 | 3.72 | -4.74 | 17.4 | 59.6
[2] | -9.43 | -1.33 | -2.11 | 29.9 | 73.8
[3] | -3.93 | -10.2 | -7.12 | 74.4 | 84.7
[4] | -5.56 | -0.72 | -0.67 | -4.14 | 48.2
[5] | 5.65 | 4 | 10.3 | 27.9 | 94
[6] | -15 | -8.59 | -3.23 | 28.3 | 70.2
[7] | -2.38 | 3.58 | -5.48 | 24.1 | 67.8
[8] | 2.87 | -0.14 | -7.54 | 46.5 | 100
[9] | -2.34 | -6.68 | 1.1 | 67.4 | 100
[10] | -14.9 | -11.4 | 13.4 | 37.6 | 82.2
[11] | -1.46 | -2.48 | 3.48 | 12.5 | 71
[12] | 4.7 | 2.59 | 15.4 | 62.1 | 91.9
[13] | 2.7 | 1.66 | 7.53 | 73.7 | 99.5
[15] | 6.59 | 2.98 | 3.43 | 27.4 | 91.5

Conditions | drug sensitivity score
[14] | 9.08
[16] | 5.85
[17] | 8.1
[18] | 13.4
[19] | 2.21
[20] | 8.82
[21] | 7.7
[22] | 7.12
[23] | 11.4
[24] | 13.3
[25] | 9.05
[26] | 5.99
[27] | 13.7
[28] | 14.9
